The source made the active and inactive calls. The calls are words filed in the database; no cut-off is given here.
Experiments:
[1] = target: T1, Cannabinoid receptor 1 (Homo sapiens, UniProt P21554); format: functional, cell-based, CHO-K1
Description: Antagonist activity at human CB1 receptor expressed in CHOK1 cells assessed as inhibition of CP-55940-induced response after 10 mins by GTPgamma[35S] binding assay

[2] = target: Cannabinoid receptor 2 (Homo sapiens, UniProt P34972); test: Binding affinity to CB2 receptor
[3] = target: T1, Cannabinoid receptor 1; test: Binding affinity to CB1 receptor
[4] = Oral bioavailability in rat up to 50 mg/kg; format: ADME, organism-based; details: in vivo
[5] = Volume of distribution at steady state in rat at 1 mg/kg, iv and 5 mg/kg, po; format: ADME, organism-based; details: in vivo, read-out: Vdss
[6] = test system: Rattus norvegicus; test: Antiobesity activity in fast-induced refeeding Sprague-Dawley rat model assessed as reduction in food intake at 1 mg/kg, po administered 30 mins prior to food intake measured every 10 mins for 2 hrs; format: functional; set-up: scale not given: the % may be the effect or the level left
[7] = test system: Rattus norvegicus; test: Inhibition of CP-55940-induced locomotor activity in rat at >=1 mg/kg, sc administered 15 mins before CP-55940 challenge measured after 25 mins
[8] = test system: Rattus norvegicus; test: Inhibition of CP-55940-induced catalepsy in rat at >=1 mg/kg, sc administered 15 mins before CP-55940 challenge measured after 90 mins
[9] = test system: Rattus norvegicus; test: Inhibition of CP-55940-induced hypothermia in rat at >=1 mg/kg, sc administered 15 mins before CP-55940 challenge measured after 65 mins
[10] = test system: Mus musculus; test: Antiobesity activity in diet-induced obese mouse assessed as reduction in weight gain at 1 mg/kg, po for 7 days; format: functional; set-up: scale not given: the % may be the effect or the level left
[11] = test system: Rattus norvegicus; test: Inhibition of CP-55940-induced analgesia in rat at >=1 mg/kg, sc administered 15 mins before CP-55940 challenge measured after 45 mins by hot plate method
[12] = test system: Mus musculus; test: Antiobesity activity in diet-induced obese mouse assessed as reduction in food intake at 1 mg/kg, po for 7 days; format: functional; set-up: scale not given: the % may be the effect or the level left
[13] = Bioavailability in rat at 1 mg/kg, iv and 5 mg/kg, po; format: ADME, organism-based; details: in vivo
[14] = species on record: Rattus norvegicus; test: Toxicity in Sprague-Dawley rat assessed as behavioral side effects and rapid respiration at concentration >=10 fold of plasma level; format: organism-based; details: in vivo
[15] = test system: Rattus norvegicus; test: Antiobesity activity in fast-induced refeeding Sprague-Dawley rat model assessed as reduction in food intake at 3 mg/kg, po administered 30 mins prior to food intake measured every 10 mins for 2 hrs; format: functional; set-up: scale not given: the % may be the effect or the level left
[16] = test system: Mus musculus; test: Antiobesity activity in diet-induced obese mouse assessed as reduction in food intake at 3 mg/kg, po for 7 days; format: functional; set-up: scale not given: the % may be the effect or the level left
[17] = test system: Mus musculus; test: Antiobesity activity in diet-induced obese mouse assessed as reduction in weight gain at 3 mg/kg, po for 7 days; format: functional; set-up: scale not given: the % may be the effect or the level left
[18] = test system: Mus musculus; test: Inhibition of CP-55940-induced analgesia in ICR mouse at 1 mg/kg, sc administered 15 mins before CP-55940 challenge measured after 45 mins by hot plate method; format: functional, organism-based; set-up: dose 1 mg/kg
[19] = test system: Mus musculus; test: Inhibition of CP-55940-induced locomotor activity in ICR mouse at 1 mg/kg, sc administered 15 mins before CP-55940 challenge measured after 25 mins; format: functional, organism-based; set-up: dose 1 mg/kg
[20] = test system: Mus musculus; test: Inhibition of CP-55940-induced catalepsy in ICR mouse at 1 mg/kg, sc administered 15 mins before CP-55940 challenge measured after 90 mins; format: functional, organism-based; set-up: dose 1 mg/kg
[21] = Half life in rat at 1 mg/kg, iv and 5 mg/kg, po; format: ADME, organism-based; details: in vivo
[22] = species on record: Rattus norvegicus; test: Anorectic activity in acute food intake rat model assessed as increase in fat oxidation; format: functional, organism-based
[23] = test system: Mus musculus; test: Inhibition of CP-55940-induced hypothermia in ICR mouse at 1 mg/kg, sc administered 15 mins before CP-55940 challenge measured after 65 mins; format: functional, organism-based; set-up: dose 1 mg/kg
[24] = Solubility in sodium taurocholate/phosphatidyl choline salt medium; format: physicochemical
[25] = species on record: Rattus norvegicus; test: Anorectic activity in acute food intake rat model assessed as increase in energy expenditure; format: functional, organism-based
[26] = test system: Rattus norvegicus; test: Toxicity in po dosed rat after 4 days; format: organism-based; details: in vivo, 96 h
[27] = Aqueous solubility of the compound; format: physicochemical; details: buffer
[28] = Oral bioavailability in rat at 500 mg/kg; format: ADME, organism-based; details: in vivo
[29] = species on record: Rattus norvegicus; test: Anorectic activity in acute food intake rat model assessed as decrease in food intake; format: functional, organism-based

T1 sequence (P21554 whole entry): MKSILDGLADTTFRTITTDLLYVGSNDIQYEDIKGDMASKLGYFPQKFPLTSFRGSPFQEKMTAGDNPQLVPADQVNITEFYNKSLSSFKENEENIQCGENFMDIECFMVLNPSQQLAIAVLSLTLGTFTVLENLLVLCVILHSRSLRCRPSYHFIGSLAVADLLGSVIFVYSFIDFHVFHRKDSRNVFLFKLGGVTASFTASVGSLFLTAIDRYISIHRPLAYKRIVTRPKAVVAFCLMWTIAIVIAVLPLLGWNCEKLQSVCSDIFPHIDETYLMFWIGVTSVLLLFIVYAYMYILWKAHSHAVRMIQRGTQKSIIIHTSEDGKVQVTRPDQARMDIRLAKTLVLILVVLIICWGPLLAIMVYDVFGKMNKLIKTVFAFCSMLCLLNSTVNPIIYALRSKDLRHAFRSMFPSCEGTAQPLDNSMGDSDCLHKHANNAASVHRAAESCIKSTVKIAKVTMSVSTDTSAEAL
Chain of Cannabinoid receptor 2 (P34972 whole entry): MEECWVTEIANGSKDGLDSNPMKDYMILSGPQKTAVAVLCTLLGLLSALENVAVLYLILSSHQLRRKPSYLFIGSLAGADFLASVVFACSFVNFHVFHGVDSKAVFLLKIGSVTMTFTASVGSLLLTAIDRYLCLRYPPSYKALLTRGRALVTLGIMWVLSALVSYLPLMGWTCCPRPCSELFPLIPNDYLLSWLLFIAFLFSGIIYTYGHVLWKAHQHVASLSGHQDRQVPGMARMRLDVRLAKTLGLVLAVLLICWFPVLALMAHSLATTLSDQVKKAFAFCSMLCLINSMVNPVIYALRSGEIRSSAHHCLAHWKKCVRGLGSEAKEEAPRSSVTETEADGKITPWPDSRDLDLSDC

Row | SMILES | Ki [1] [nM] | Ki [2] [nM] | Ki [3] [nM] | further results
1 | CCN1CCc2c(nn(-c3ccccc3Cl)c2-c2ccc(Cl)cc2)C1=O | 25 | 23400 | 4.7 | 
2 | O=C1c2nn(-c3ccccc3Cl)c(-c3ccc(Cl)cc3)c2CCN1C1CCCC1 |  |  | 24 | 
3 | CC(F)(F)CN1CCOc2c(nn(-c3ccccc3Cl)c2-c2ccc(Cl)cc2)C1=O |  |  |  | bioavailability [4]: 51%; Vd [5]: 2.6 L/kg; Activity [6]: 40%; Activity [7]: Active; Activity [8]: Active; Activity [9]: Active; Activity [10]: 5.9%; Activity [11]: Active; Activity [12]: 23%; bioavailability [13]: 42%
4 | CC(C)N1CCc2c(nn(-c3ccccc3Cl)c2-c2ccc(Cl)cc2)C1=O | 5.5 | > 10000 | 2.5 | 
5 | Cc1nc2c(-c3ccc(Cl)cc3)n(-c3ccccc3Cl)nc2c(=O)n1CC(F)(F)F |  | > 10000 |  | Activity [14]: Toxic
6 | CC(F)(F)CN1CCc2c(nn(-c3ccccc3Cl)c2-c2ccc(Cl)cc2)C1 |  |  | 30 | 
7 | COC(C)(C)CN1CCc2c(nn(-c3ccccc3Cl)c2-c2ccc(Cl)cc2)C1=O |  | 162 |  | 
8 | CC(C)(C)N1CCc2c(nn(-c3ccccc3Cl)c2-c2ccc(Cl)cc2)C1=O | 11 | 6810 | 4.7 | 
9 | CC(C)N1CCOc2c(nn(-c3ccccc3Cl)c2-c2ccc(Cl)cc2)C1=O | 4.8 | > 10000 | 1.3 | 
10 | O=C1c2nn(-c3ccccc3Cl)c(-c3ccc(Cl)cc3)c2CCN1CC(F)(F)F | 3.1 | > 10000 | 1.7 | 
11 | Cc1c(C(=O)NN2CCCCC2)nn(-c2ccc(Cl)cc2Cl)c1-c1ccc(Cl)cc1 [RIMONABANT] |  |  |  | Activity [15]: 43%; Activity [16]: 21%; Activity [17]: 5.2%
12 | CCC(F)(F)CN1CCOc2c(nn(-c3ccccc3Cl)c2-c2ccc(Cl)cc2)C1=O | 0.7 | > 10000 | 1.4 | 
13 | O=C1c2nn(-c3ccccc3Cl)c(-c3ccc(Cl)cc3)c2OCCN1CC(F)(F)F | 1.5 | > 10000 | 1.9 | 
14 | CC(F)(F)CN1CCc2c(nn(-c3ccccc3Cl)c2-c2ccc(Cl)cc2)C1=O |  | > 10000 |  | Activity [18]: Active; Activity [19]: Active; Vd [5]: 2.6 L/kg; Activity [20]: Active; half-life [21]: 3.6 h; Activity [22]: Active; Activity [23]: Active; solubility [24]: 18.5 ugA/ml; Activity [25]: Active; Activity [26]: Non-toxic; solubility [27]: 0.2 ugA/ml; bioavailability [28]: 50%; Activity [14]: Non-toxic; bioavailability [13]: 99%; Activity [29]: Dose-dependent effect
15 | CC(C)CN1CCc2c(nn(-c3ccccc3Cl)c2-c2ccc(Cl)cc2)C1=O | 9.8 | 1780 | 2.5 | 

From ChEMBL document CHEMBL1138462 (J Med Chem, 2009)
